Consider two compounds from US20130041005A1, “PHARMACEUTICAL COMPOSITIONS COMPRISING NEUROPILIN INHIBITORS, AND THEIR USE FOR THE PREVENTION AND/OR TREATMENT OF ANGIOGENIC DISORDERS AND CANCERS” (TRAGEX PHARMA, priority 2011, published 2013).

Data set [1] has as its system MDA-MB-231. Kind of data set: WST-1 proliferation assay, MDA-MB-231. Format: cell-based, Human. The note with it: for IC50: Homo sapiens, Breast MDA-MB-231, 72 h, read-out: Anti-proliferative activity IC50 (μM) ± SD; for effect on anti-proliferative effect of 5-FU: MDA-MB-231, combination with 5-FU, 72 hours (FIG. 7); for cytotoxicity for cancer cells in vitro: MDAMB-231 cell survival, FIGS. 1A-C. As to the method: (§1) Cells were grown as subconfluent monolayer and cultured in 75 cm^2 flasks at 37° C., 5% CO2 in a humidified atmosphere, and medium was changed every two days. Only cells from passages 2-6 were used for the experiments.
All cells were detached with 3 ml of trypsin/EDTA (chelator of calcium and magnesium ions) (Lonza), incubated for 5 min at 37° C., and examined using a microscope to ensure that the cells were detached and floating. […] The supernatant was removed and the cell pellet resuspended in […] of culture medium. 50 μl of this solution were transferred in 20 μl of isotonic solution and the cells were counted by count cellular (Beckman Coulter).
(§2) The cell proliferation WST-1 assay is a colorimetric assay for the quantification of cell proliferation and viability, based on the enzymatic cleavage of the tetrazolium salt WST-1 added to the culture medium, to a water soluble colored formazan dye, detected by absorbance at 450 nm, by mitochondrial succinate-tetrazolium reductase in viable cells. An augmentation in enzyme activity will then lead to an increase in the amount of formazan dye formed, which directly correlates to the number of metabolically active cells in the culture.
After an incubation period of 72 h, at day 4, were prepared the […] medium with reagent WST-1 […] ([…]). The medium was removed from the 96 microplate and 200 μl of solution WST-1/medium were added for each well. The cells were incubated at 37° C. in a humidified atmosphere of 5% CO2 for 1 h 30 and the absorbance at 450-655 nm was measured by Microplate Manager 5.2 (Bio-Rad).
A general note: Tetrazolium assays rely on reduction of a dye to a coloured formazan, in cell work by metabolically active cells.

Data set [2] deals with Panc-10.5. Kind of data set: WST-1 proliferation assay, Panc-10.5. Format: cell-based. The note with it: Homo sapiens; for inhibition at 0.1 µM: PANC - 10.5, 0.1 μM; for inhibition at 0.5 µM: PANC - 10.5, 0.5 μM; for inhibition at 1 µM: PANC - 10.5, 1 μM; for IC50: Pancreas Panc-10.5, 72 h, read-out: Anti-proliferative activity IC50 (μM) ± SD.
Description: Several cancer cell lines were used: breast cancer cells (MDA-MB-231 (ATTCC® Number HTB-26™), MDA-MB-436 (ATTCC® Number HTB-130™), MDA-MB-438, BT-474 (ATTCC® Number HTB-20™)); cervical cancer cells (HeLa (ATTCC® Number CCL-2™)); colon cancer cells (HCT-116 (ATTCC® Number CCL-247™) and HT-29 (ATTCC® Number HTB-38™)); osteosarcoma cells (U2OS (ATTCC® Number HTB-96™)); pancreas cancer cells (MIA PaCa-2 (ATTCC® Number CRL-1420™) and Panc-10.5 (ATTCC® Number CRL-2547™)); prostate cancer cells (PC-3 (ATTCC® Number CRL-1435™) and LNCaP (ATTCC® Number CRL-1740™)); brain cancer cells (U87 glioblastoma (ATTCC® Number HTB-14™) and SH-SYSY neuroblastoma (ATTCC® Number CRL-2266™)).
(§3) All the cancer cell lines were maintained in cultured in DMEM GlutaMAX™ (GIBCO Invitrogen, France, cat no 31966047) enhanced with 10% foetal bovine serum (GIBCO Invitrogen, France, cat no 10270-106) and 1% penicillin G/streptomycin (GIBCO Invitrogen, France, cat no 15140-122). Only Panc-10.5 cells were cultivated in RPMI 1640 medium (Gibco) supplemented with 2 mM L-glutamine, 1.5 g/L sodium bicarbonate, 4.5 g/L glucose, 10 mM HEPES, 1 mM sodium pyruvate, 10 Units/ml human insulin, […] (SVF): 15% (75 ml in 500 ml of medium).
as §1
After observation of cells under the microscope, old media were removed and the adherent cells washed gently twice with PBS (Phosphate Buffer Saline, —Ca^2+, —Mg^2+, Lonza cat no: 17-512F/12). All cells were detached with 3 ml of trypsin/EDTA (chelator of calcium and magnesium ions) (Lonza), incubated for 5 min at 37° C., and examined using a microscope to ensure that the cells were detached and floating. Then, 3 ml TNS (Trypsin Neutralizing Solution, Lonza, France, cat no CC-5002) or of culture medium were added to inactivate the trypsin, and the cell suspension was transferred in a falcon and centrifuged for 7 min at 1400 rpm. The supernatant was removed and the cell pellet resuspended in […] of culture medium. 50 μl of this solution were transferred in 20 μl of isotonic solution and the cells were counted by count cellular (Beckman Coulter). At day 0, 200 μl of cellular suspension (3.10^3 cells/well for the HUVEC cells, breast cancer cells (MDA-MB-231 1.10^4 cells/well, MDA-MB-436 1.10^4 cells/well, MDA-MB-438 2.10^4 cells/well, BT-474 2.5.10^4 cells/well); cervical cancer cells (HeLa 5.000 cells/well); colon cancer cells (HCT-116 5.10^3 cells/well, HCT-29 1.1.10^4 cells/well); osteosarcoma cells (U2OS 8.10^3 cells/well); pancreas cancer cells (MIA PaCa-2 5.10^3 cells/well, Panc-10.5 1.5.10^4 cells/well); prostate cancer cells (PC-3 4.10^3 cells/well, LNCaP 2.10^4 cells/well); brain cancer cells (U87 5.10^3 cells/well, SH-SYSY 8.10^4 cells/well)) were then plated on 96 well plates and incubated at 37° C. in a humidified atmosphere of 5% CO2 for 24 h.
At day 1, the compounds 1 or 2 of the invention were added at increasing concentrations (0.1-10 μM) in the wells and plates were incubated at 37° C. in a humidified atmosphere of 5% CO2 for 72 h.
as §2
After an incubation period of 72 h, at day 4, were prepared the 19 ml medium with reagent WST-1 1 ml ([…]). The medium was removed from the 96 microplate and 200 μl of solution WST-1/medium were added for each well. […]

The subject of data set [3] is GRANTA-519. The experiment in a line: WST-1 proliferation assay, GRANTA-519. Format: cell-based. The note with it: Homo sapiens; Mantle cell lymphoma GRANTA-519; read-out: Anti-proliferative activity IC50 (μM) ± SD. As to the method:
as §3
Cells were grown as subconfluent monolayer and cultured in 75 cm^2 flasks at 37° C., 5% CO2 in a humidified atmosphere, and medium was changed every two days. […]
The cell proliferation WST-1 assay is a colorimetric assay for the quantification of cell proliferation and viability, based on the enzymatic cleavage of the tetrazolium salt WST-1 added to the culture medium, to a water soluble colored formazan dye, detected by absorbance at 450 nm, by mitochondrial succinate-tetrazolium reductase in viable cells. […]
After an incubation period of 72 h, at day 4, were prepared the 19 ml medium with reagent WST-1 1 ml ([…]). […] The cells were incubated at 37° C. in a humidified atmosphere of 5% CO2 for 1 h 30 and the absorbance at 450-655 nm was measured by Microplate Manager 5.2 (Bio-Rad).

In data set [4] the test system is MDA-MB-438. Kind of data set: WST-1 proliferation assay, MDA-MB-438. It counts as cell-based. The note with it: Homo sapiens; MDA-MB-438, 0.05 μM.
For data set [5], the system named is HeLa. Kind of data set: WST-1 proliferation assay, HeLa. It counts as cell-based. The note with it: Homo sapiens.
Data set [6] deals with U2OS. Kind of data set: WST-1 proliferation assay, U2OS. Format: cell-based. The note with it: Homo sapiens.
In data set [7] the test system is PC-3. Kind of data set: WST-1 proliferation assay, PC-3. Conditions: Homo sapiens; PC-3, 0.05 μM. Format: cell-based.

One may read the IC50 as the concentration that gives 50% inhibition. Broadly, the inhibition is the drop in the measured response relative to a control, in per cent. Low values mean a weak effect, high ones a strong effect. Turning to `Cc1ccc(-c2nc3ccccc3[nH]2)cc1NC(=S)NC(=O)c1ccc2c(c1)OCCO2` [Compound 1, N-[5-(1H-benzimidazol-2-yl)-2-methylphenyl]-N′-(2,3-dihydro-1,4-benzodioxin-6-ylcarbonyl)thiourea], in data set [1], the IC50 worked out at 0.6 ± 0.03 µM, the “effect on anti-proliferative effect of 5-FU” value is “increase the anti-proliferative effect of 5-FU” and the “cytotoxicity for cancer cells in vitro” value is reported as “cytotoxic”. Further, in data set [2], testing at 0.1 µM gave an inhibition of 21%, the inhibition at 0.5 µM amounted to 44%, testing at 1 µM gave an inhibition of 56% and the IC50 is 1 µM. In data set [3], the IC50 came out at 1 µM. In data set [4], this compound had an inhibition at 0.05 µM of 2%. For the same compound, in data set [5], the inhibition at 0.05 µM worked out at 4%. This compound displayed an inhibition at 0.05 µM in data set [6] of 9%. This compound also gave an inhibition at 0.05 µM in data set [7] of 0%.
On to `O=C(NC(=S)Nc1cccc(-c2nc3ccccc3[nH]2)c1)c1ccc2c(c1)OCCO2` [Compound 2, N-[3-(1H-benzimidazol-2-yl)phenyl]-N′-(2,3-dihydro-1,4-benzodioxin-6-ylcarbonyl)thiourea], for which, in data set [1], the IC50 came out at 0.4 ± 0.02 µM, the “effect on anti-proliferative effect of 5-FU” value is recorded as “increase the anti-proliferative effect of 5-FU” and the “cytotoxicity for cancer cells in vitro” value is on record as “cytotoxic”. Also, in data set [2], 0.1 µM produced 51% inhibition, the inhibition at 0.5 µM worked out at 62%, the inhibition at 1 µM was 65% and the IC50 was determined as 0.1 ± 0.09 µM. Further, the IC50 in data set [3] was 0.5 ± 0.02 µM. Besides, in data set [4], the inhibition at 0.05 µM was determined as 13%. The compound further gave an inhibition at 0.05 µM in data set [5] of 49%. The compound further showed an inhibition at 0.05 µM in data set [6] of 18%. For the same compound, the inhibition at 0.05 µM in data set [7] worked out at 0%.
